Patent US20260034161A1, “2-HYDROXYPROPYL-BETA-CYCLODEXTRIN AS A CANCER THERAPY NEOADJUVANT OR ADJUVANT” (University of the Witwatersrand, Johannesburg, priority 2022, published 2026)
Entries after “also recorded” stand apart in the source; their conditions may differ.

Legend:
NMuMg cells [1] = experiment: Immunofluorescence of EMT markers E-cadherin and vimentin in NMuMg cells; format: cell-based, mouse
Protocol: (§1) Three different mechanisms of action were used to induce EMT in breast and colorectal adenocarcinoma cell lines. Breast cancer MCF-7 cells were treated with 150 micromolar (μM) cobalt chloride (CoCl2) for 48 hours. Initially, a working stock solution of 2500 μM COCl2 was prepared by dilution in distilled water. The resulting solution was further diluted upon administration to cells cultured in cell culture media. Cell culture media composition: Dulbecco's Modified Eagle's Medium (DMEM) (Sigma Aldrich, UK) supplemented with 10% foetal bovine serum (FBS) (Celtic Molecular Diagnostics, SA) and 1% Penicillin-Streptomycin (Sigma Aldrich, UK). NMuMg cells (a normal mouse mammary cell line) were treated with 10 nanograms/millilitre of transforming growth factor beta 1 (TGF-β) for 48 hours. A stock solution of TGF-β was prepared by reconstituting 2 μg of recombinant TGF-β at 20 μg/mL in sterile 4 mM HCl containing 1 mg/mL of bovine serum albumin (BSA) diluted in water. NMuMG cells were cultured in Dulbecco's Modified Eagle Medium (DMEM) (ThermoFisher Scientific, USA), supplemented with 10% FBS, 1% Penicillin-Streptomycin, 1% GlutaMAX, and 10 μg/mL insulin. Colorectal cancer HT-29 cells were treated with 50 nanograms/millilitre of interleukin-6 (IL-6) for 24 hours. A working stock solution of 1 micrograms/millilitre of IL-6 was prepared by dilution in 0.1% BSA in phosphate-buffered saline (PBS). The resulting solution was further diluted upon administration to cells cultured in cell culture media. […]
(§2) Protein expression of EMT molecular markers in control and CoCl2, TGF-β and IL-6 treated cells was detected by employing immunofluorescence microscopy. […] E-cadherin expression was detected by Alexa Fluor 488 staining (green) while nuclei were stained with DAPI (blue) (FIG. 1). Vimentin expression was detected by Texas Red staining (red) while nuclei were stained with DAPI (blue) (FIG. 2). […]
(§3) Methyl-β-cyclodextrin (MβCD) was employed as a positive control, as it is a well-documented cholesterol depletory agent. […] Immunofluorescence intensity was quantified by utilising the ImageJ software (NIH, USA). Cells of interest and background fluorescence was analysed by considering the following parameters: area, integrated density and mean grey value. Corrected total cellular fluorescence was calculated as follows: CTCF=Integrated Density−(Area of selected cell×Mean fluorescence of background readings).
(§4) The protein expression of E-cadherin following treatment with various cholesterol targeting agents in MCF-7, NMuMg, and HT-29 cells, pre- and post-EMT induction was investigated. E-cadherin expression was determined by Alexa Fluor 488 staining (green) while nuclei were stained with DAPI (blue). […]

MCF-7 cells = experiment: Immunofluorescence of EMT markers E-cadherin and vimentin in MCF-7 cells; format: cell-based
Protocol: as §1, §2, §3, §4

[2] = Serum AST and ALT as a measure of liver toxicity; settings: mouse, in vivo
Protocol: In order to investigate the in vivo application of HPβCD as an anti-cancer agent for colorectal cancer (CRC) using NOD/SCID mice, 24 NOD/SCID mice (5-8 weeks old) were injected with 4×10^6 HT-29 cells (suspended in 10% McCoy's media and 1×PBS), until tumours developed. Once tumours reached a size of 150-200 mm^3 (1-2 weeks), treatments (12 treatments in total for each group, however only up to 6 treatments for the OXAL treated group due to obvious toxicity) were given. Treatment groups consisted of 4 mice each and included a control group (injected with 1×PBS), a group treated with HPβCD, a group treated with Oxaliplatin (OXAL) only, a group treated with 5-Fluorouracil (5FU) only, a group treated with HPβCD and OXAL and lastly a group treated with HPβCD and 5FU. Mice were intraperitoneally injected with 3 000 mg/kg of HPβCD, 10 mg/kg of OXAL and 30 mg/kg of 5FU thrice a week for 4 weeks. For combination treatments HPβCD was administered with either 5FU or OXAL chemotherapy. Mice were weighed three times a week and averages were calculated to show per week weights. […]
Blood was collected post euthanization and serum was analysed for AST and ALT levels using the IDEXX Catalyst DX Chemistry Analyzer. […]

HT-29 cells [3] = experiment: Immunofluorescence of EMT markers E-cadherin and vimentin in HT-29 cells; format: cell-based
Protocol: as §1, §2, §3, §4

[4] = Serum cholesterol levels post treatment; format: in vivo, NOD/SCID mice
Protocol: (§5) In order to investigate the in vivo application of HPβCD as an anti-cancer agent for colorectal cancer (CRC) using NOD/SCID mice, 24 NOD/SCID mice (5-8 weeks old) were injected with 4×10^6 HT-29 cells (suspended in 10% McCoy's media and 1×PBS), until tumours developed. Once tumours reached a size of 150-200 mm^3 (1-2 weeks), treatments (12 treatments in total for each group, however only up to 6 treatments for the OXAL treated group due to obvious toxicity) were given. Treatment groups consisted of 4 mice each and included a control group (injected with 1×PBS), a group treated with HPβCD, a group treated with Oxaliplatin (OXAL) only, a group treated with 5-Fluorouracil (5FU) only, a group treated with HPβCD and OXAL and lastly a group treated with HPβCD and 5FU. Mice were intraperitoneally injected with 3 000 mg/kg of HPβCD, 10 mg/kg of OXAL and 30 mg/kg of 5FU thrice a week for 4 weeks. For combination treatments HPβCD was administered with either 5FU or OXAL chemotherapy. Mice were weighed three times a week and averages were calculated to show per week weights. When mice were euthanized, serum was collected from whole blood samples and this was further used to test cholesterol levels, as well as Aspartate aminotransferase (AST) and Alanine aminotransferase (ALT) as a measure for liver toxicity. They were then perfused and all organs, including tumours, were harvested. All organs were snap frozen and stored at −80° C. Tumour samples were further stored in 10% neutral buffered formalin (4° C.) and RNA Later (−80° C.).

[5] = Tolerability of treatments in tumour-bearing NOD/SCID mice; format: in vivo
Protocol: as §5

NMuMg cells [6] = experiment: RT-qPCR of cholesterol-related genes in NMuMg cells; settings: NMuMg post-EMT
Protocol: Relative expression is presented as log 2 fold changes between conditions.
To delineate the molecular mechanism governing cholesterol-mediated EMT induction, RT-qPCR analysis of the major cholesterol-related genes were assessed in the NMuMg cell line. RNA was extracted using the Direct-Zol™ RNA MiniPrep kit (Zymo Research, Inqaba Biotec™, SA). RNA extraction was carried out as per the manufacturer's protocol. Total RNA of 1 μg was utilised for cDNA synthesis using the RevertAidFirst Strand cDNA Synthesis kit (Thermo Fisher Scientific, USA) and was carried out according to the manufacturer's protocol. qPCR was performed using the SensiFAST™ SYBR® No-ROX kit, utilising a 3-step cycle on the CFX96 Touch™ Real-Time PCR detection system (Bio-Rad).

HT-29 cells [7] = experiment: HT-29 colorectal cancer xenograft in NOD/SCID mice: tumour size, weight, metastasis; format: in vivo; design: Tumour reduction / Tumour gain or reduction: concentration or dose not given beside the values; settings: for Average tumour size / Average tumour weight: group average, 4 mice, 3 000 mg/kg HPβCD, 10 mg/kg OXAL, 30 mg/kg 5FU i.p.; for Tumour reduction: tumour size; for Tumour reduction / Tumour gain or reduction: as compared to the untreated group; for Tumour gain or reduction: tumour weight
Protocol: as §5

[8] = test system: multidrug resistance protein 1 (MDR1); experiment: Vybrant MDR assay (calcein AM retention); format: cell-based; settings: HT-29 cells treated with the FOLFOX chemotherapy cocktail; 1 mM MβCD, 10 mM HPβCD; preliminary data
Protocol: To assess the multi-drug resistant potential of cells pre- and post-EMT, the Vybrant® MDR Assay Kit (ThermoFisher Scientific, USA) was employed. This assay relies on the administration of an appropriate multidrug resistance protein 1 (MDR1) substrate, calcein acetoxymethyl ester (calcein AM) where drug-efflux potential is assessed by measuring the levels of intracellular calcein fluorescence. 10 000 cells were seeded per well in a 96-black walled plate. Following the 2-hour treatment period, cells were incubated with 0.25 μM Calcein-AM for 30 minutes at 37° C. Following this, two PBS washes were completed, and PBS administered to each well to ascertain fluorescence intensity. The Victor Nivo multi-mode microplate reader (Perkin Elmer, USA) was utilised with the excitation maximum set to 494 nm and the emission maximum set to 517 nm.
This can be attributed to alterations in lipid-raft membrane structure resulting in translocation of MDR1 to detergent soluble fractions which affects basal ATPase activity. This consequently affects the efflux potential of the MDR1 transporter. […] Fluorescence intensity (RFU) was quantified using the Victor Nivo multi-mode microplate reader (Perkin Elmer, USA) with the excitation maximum set to 494 nm and the emission maximum set to 517 nm.

[9] = Toxicity of HPβCD compared to simvastatin
[10] = post-EMT (TGF-β), 2-hour treatment, 10 mM HPβCD, 1 mM MβCD
[11] = MCF-7, post-EMT (CoCl2), 2-hour treatment, 10 mM HPβCD, 1 mM MβCD
[12] = HT-29, post-EMT (IL-6), 2-hour treatment, 10 mM HPβCD, 1 mM MβCD
[13] = MCF-7, 150 μM CoCl2 for 48 hours vs control
[14] = 10 ng/mL TGF-β for 48 hours vs control
[15] = HT-29, 50 ng/mL IL-6 for 24 hours vs control

2-hydroxypropyl-β-cyclodextrin [HPβCD]
E-cadherin expression (immunofluorescence) (NMuMg cells [1]; [10]): increase | vimentin expression (immunofluorescence) (NMuMg cells [1]; [10]): decrease | E-cadherin expression (immunofluorescence) (MCF-7 cells; [11]): increase | vimentin expression (immunofluorescence) (MCF-7 cells; [11]): decrease | AST:ALT ratio [2]: 1.67 U/L | liver toxicity (in words) [2]: no observed liver toxicity | E-cadherin expression (immunofluorescence) (HT-29 cells [3]; [12]): increase | vimentin expression (immunofluorescence) (HT-29 cells [3]; [12]): decrease | average level of serum cholesterol ([4]; untreated average 51 mg/dL): 65.5 mg/dL | effect of HPβCD on toxicity of the co-administered chemotherapy ([5]; 3 000 mg/kg HPβCD i.p. with OXAL or 5FU): decreased the toxicity of OXAL; also recorded: reduced toxicity of OXAL; also recorded: reduce toxicity related to 5FU | effect on cholesterol efflux (gene expression) (NMuMg cells [6]; 10 mM HPβCD, 10 μM simvastatin for 2 hours): drastically affected | average reduction in tumour size (HT-29 cells [7]; 3 000 mg/kg HPβCD i.p.): ~17% | tumour size, visually (HT-29 cells [7]; FIG. 9): reduced | Average tumour size (HT-29 cells [7]): 1983 mm^3 | Average tumour weight (HT-29 cells [7]): 3.5125 g | Tumour reduction (HT-29 cells [7]): -17.6% | Tumour gain or reduction (HT-29 cells [7]): 9.17% | intracellular retention of fluorescent calcein [8]: increase | toxicity compared to simvastatin [9]: low toxicity

[Cl][Co][Cl] [CoCl2, cobalt chloride]
E-cadherin expression following EMT induction (MCF-7 cells; [13]): significantly decreased | Vimentin expression following EMT induction (MCF-7 cells; [13]): significantly increased

transforming growth factor beta 1 [TGF-β]
E-cadherin expression following EMT induction (NMuMg cells [1]; [14]): significantly decreased | Vimentin expression following EMT induction (NMuMg cells [1]; [14]): significantly increased

O=c1[nH]cc(F)c(=O)[nH]1 [5FU, 5-Fluorouracil]
serum cholesterol levels (in words) [4]: significantly higher | Average tumour size (HT-29 cells [7]): 841.4 mm^3 | Average tumour weight (HT-29 cells [7]): 1.4475 g | Tumour reduction (HT-29 cells [7]): -65.1% | Tumour gain or reduction (HT-29 cells [7]): -55%

O=C1[O][Pt]2([NH][C@@H]3CCCC[C@H]3[NH]2)[O]C1=O [OXAL, Oxaliplatin]
serum cholesterol levels (in words) [4]: significantly higher | unexpected death of mice in treatment group ([5]; 6 treatments of OXAL alone, 10 mg/kg i.p.): 50% | health outcome of treated mice ([5]; OXAL alone 6 treatments, OXAL with HPβCD all 12 treatments of the same dose): 2 died and 2 had to be euthanized | Average tumour size (HT-29 cells [7]): 1413 mm^3 | Average tumour weight (HT-29 cells [7]): 1.6975 g | metastasis at dissection (HT-29 cells [7]; mouse, in vivo): metastasis almost throughout the body in one mouse | Tumour reduction (HT-29 cells [7]): -41.3% | Tumour gain or reduction (HT-29 cells [7]): -47.2%

Methyl-β-cyclodextrin [MβCD]
effect on cholesterol biosynthesis and influx (gene expression) (NMuMg cells [6]; 1 mM MβCD for 2 hours): more significant effect | intracellular retention of fluorescent calcein [8]: increase

interleukin-6 [IL-6]
E-cadherin expression following EMT induction (HT-29 cells [3]; [15]): significantly decreased | Vimentin expression following EMT induction (HT-29 cells [3]; [15]): significantly increased
